From patent US20110098284A1, “Methods and compositions for treating pain” (priority 2005, published 2011)
Read-outs that look alike come from different tables or passages of the source. Blank lines part the entries; values can stand above or below the compound they belong to.

Columns and labels:
[1] = cited from earlier work
[2] = cited from earlier work; for incidence of injection site pain: diclofenac 75 mg or ketorolac 30 mg IM (Morrow)
[3] = stored for 12 weeks at 5° C., 25° C./60% RH, 30° C./60% RH, 40° C./75% RH; for original NSAID content on storage: stability indicating HPLC; for visible signs of crystallization, deviation in pH and osmolarity on storage: vials or ampoules sealed under nitrogen
[4] = vs. 0% placebo; P=0.03; cited from earlier work
[5] = CABG study, cited from earlier work
[6] = system: marginal vein of each ear; assay: Histopathological evaluation of injection sites (Example 11); format: in vivo, New Zealand White rabbits
Description: Injection sites underwent histopathological evaluation.
Thrombosis was recorded for amorphous aggregates of fibrin like material within vascular lumens and variably adherent to vessel walls.

[7] = system: marginal vein of each ear; conditions: for edema at injection site / erythema at injection site: 24 hour observation
[8] = 1 mg/kg over 10 min as solution of 25 mg/mL (Campbell and Watters)
[9] = IV using a diluted infusion (Campbell and Watters)
[10] = Treatment A, 5 mg/0.1 mL IV over one minute
[11] = Treatment B, 15 mg/0.3 mL IV over one minute

SMILES: O=C(O)Cc1ccccc1Nc1c(Cl)cccc1Cl [diclofenac, 2-(2,6-dichlorophenylamino)benzeneacetic acid]
patients who developed phlebitis ([1]; 1 mg/kg in 100 mL saline every 12 hours x 2 doses, maxillofacial surgery (Tarkkila)): 10% | incidence of phlebitis, arm [1, 8]: 58% | incidence of phlebitis, hand [1, 8]: 85% | incidence of thrombosis, arm veins [1, 9]: 8% | incidence of thrombosis, hand veins [1, 9]: 38% | patients who developed phlebitis ([1]; after hip replacement surgery, diclofenac 75 mg IV over 30 minutes then 75 mg/15.5 hours, ketoprofen 100 mg over 30 min then 100 mg/15.5 hours (Kostamovaara)): 14% | patients who experienced phlebitis ([1]; after major orthopedic surgery, 0.35 mg/kg IV then 0.90 mcg/min continuous infusion, 6 hours after start (Claeys)): 5% | time of (delayed) venous thrombosis ([1]; diluted in 100 to 200 mL, infused over 15 to 20 minutes (Gopinath)): > 72 h | cases of severe local reactions ([2]; IM (Pillans and O'Connor)): six | patients who died ([2]; IM (Pillans and O'Connor)): Two of the six | patients with extensive tissue necrosis at the IM injection site ([2]; IM (Pillans and O'Connor)): Three | patients with necrotizing fasciitis ([2]; IM (Pillans and O'Connor)): three | share of all accepted claims for injection related complications ([2]; IM administration, New Zealand 1992 to 2003): 22.6% | incidence of injection site pain [2]: 31%

original NSAID content on storage [3]: 100%±5%
SMILES: CN1C(C(=O)Nc2ccccn2)=C(O)c2sccc2S1(=O)=O.CN1C(C(=O)Nc2ccccn2)=C(O)c2sccc2S1(=O)=O.NCCN [tenoxicam ethylenediamine]
visible signs of crystallization, deviation in pH and osmolarity on storage [3]: no visible signs of crystallization or significant deviation in pH and osmolarity

SMILES: CCC(=O)NS(=O)(=O)c1ccc(-c2c(-c3ccccc3)noc2C)cc1 [parecoxib]
sternal wound infections [4]: 3.2% | deaths ([5]; vs. 0 placebo): 4 | cerebrovascular events ([5]; vs. 0.7% placebo): 2.6% | incidence of myocardial infarctions ([5]; vs. 0.7% placebo): 1.9%

mean intensity (severity) of edema and infiltrates ([6]; rabbit, in vivo): none to negligible | original NSAID content on storage [3]: 100%±5%
SMILES: CN1C(C(=O)Nc2ccccn2)=C(O)c2ccccc2S1(=O)=O.NCCN [piroxicam-ethylenediamine]
incidence of inflammatory cell infiltrates ([6]; rabbit, in vivo): low | visible signs of crystallization, deviation in pH and osmolarity on storage [3]: no visible signs of crystallization or significant deviation in pH and osmolarity

mean intensity (severity) of edema and infiltrates ([6]; injection site histopathology): intermediate
SMILES: CN1C(C(=O)Nc2ccccn2)=C(O)c2ccccc2S1(=O)=O [unsalified piroxicam, 4-hydroxy-2-methyl-N-2-pyridinyl-2H-1,2-benzothiazine-3-carboxamide-1,1-dioxide]
incidence of inflammatory cell infiltrates ([6]; at the end of needle progression and 1 cm away from the end of progression): intermediate

SMILES: O=C(c1ccccc1)c1ccc2n1CCC2C(=O)O (stereo not drawn) [ketorolac]
incidence of injection site pain [2]: 3%

edema at injection site [7, 10]: slight | erythema at injection site [7, 10]: well defined | edema at injection site [7, 11]: very slight | erythema at injection site [7, 11]: very slight to moderate to severe
SMILES: CC(C(=O)O)c1cccc(C(=O)c2ccccc2)c1 (racemic) [Ketoprofen, (±)-2-(3-benzoylphenyl)propionic acid]
irritation in the ear veins ([7]; Treatment A, 5 mg/0.1 mL IV): produced irritation | irritation in the ear veins ([7]; Treatment B, 15 mg/0.3 mL IV): produced irritation
